Row | SMILES | melting point [°C]
1 | CCOC(=O)OC1=C(c2cc(C)ccc2C)C(=O)N(OCOC)C12CCN(OC)CC2 | 109 to 111
2 | Cc1nc(NC(=O)C2=C(O)c3ccc4ccccc4c3S(=O)(=O)N2C)sc1C | 264 to 265
3 | CCOC(=O)c1cnn(-c2cccc(S(=O)(=O)N(C)C)n2)c1N | 197 to 198
4 | Cc1cccc2c(N3CCS(=O)CC3)nc(N3CCNCC3)cc12 | 201 to 203
5 | O=[N+]([O-])c1ccc2c(c1)C(c1ccccc1)=NCc1nc(CO)cn1-2 | 250 to 251
6 | CCOc1cc(-c2nnc3c4ccccc4c(OCc4cn(C)cn4)nn23)no1 | 189 to 190
7 | CC(=O)Nc1ccc(Oc2c([N+](=O)[O-])cc(C(=O)O)cc2S(=O)(=O)NC(C)=O)cc1 | 305 to 306
8 | O=C(O)CCCSC(=S)NCCCc1ccc(Cl)cc1 | 98 to 100
9 | CCOc1ccccc1C=[N+]([O-])C1CCCCC1 | 124
10 | Nc1nc(=O)[nH]c2cccnc12 | > 300
11 | C#CC(OC(=O)C1CC1)c1ccc2ccccc2c1 (centres undefined) | 65 to 66
12 | C=Cc1ccc(Nc2nc(Cl)nc(Cl)n2)cc1 | 152 to 154
13 | Cc1cc(-c2nc3ccccc3c(=O)n2-c2ccc(C(F)(F)F)cc2)cc(C)c1OCCO | 160 to 161
14 | O=P(O)(c1ccccc1)c1ccc(S(=O)(=O)c2ccccc2)cc1 | 220 to 224
15 | c1ccc(CN2CCC3(CC(c4ccccc4)=NO3)C2)cc1 (centres undefined) | 31 to 40
16 | Cc1ccc2c(c1)c(-c1ccc(F)cc1)c(C)n2C1=CCN(CCN2CCNC2=O)CC1 | 151 to 153
17 | CC(C)(C)OC(=O)N[C@H](Cc1ccc(Cl)c(Cl)c1)C(=O)N1CCC[C@H]1C(=O)NCC1CCc2n[nH]cc2C1 (some centres undefined) | 100 to 103
18 | CCN1C(=O)C(C)(C)C(=O)N(C)c2cc(CN(CCn3cc(C)c4oc(C)cc4c3=O)Cc3cc(C)n(C)n3)ccc21 | 113 to 116
19 | CCCc1c(OCCCOc2ccc(C(=O)CCl)c(OC)c2CCC)ccc2c1OC(C(=O)OC)CC2 (centres undefined) | 47 to 49
20 | CCn1cnc2c(Nc3cccc(Cl)c3)nc(N3CCC[C@@H]3CN)nc21 | 126 to 129
21 | N#CC1CN1Cc1ccc(C(=O)O)s1 (centres undefined) | 108 to 111

Row | SMILES | melting point [°C]
22 | O=P(O)(O)C1CCCN1 (centres undefined) | 275 to 280
23 | Cc1[nH]c(=O)ccc1C(=O)c1cccs1 | 227 to 228
24 | COC(=O)c1ccc(CC#N)cc1S(=O)(=O)NC(C)(C)C | 86 to 88
25 | CC12CCC3C4CCC(=O)C=C4CC(CCCCCCCCCCCO[Si](C)(C)C(C)(C)C)C3C1CCC2=O (centres undefined) | 65
26 | COC(=O)CCc1ccc(-n2c(-c3ccccc3)nn(-c3ccc(C#N)cc3)c2=O)cc1 | 190 to 194
27 | CN(C)c1nc(N(C)C)c2ncn(Cc3ccccc3F)c2n1 | 127
28 | CCOC(=O)NCCC(c1cc(F)ccc1F)S(=O)(=O)c1ccc(Cl)cc1 (centres undefined) | 121 to 122
29 | CC1(C)CCc2c(N3CCSCC3)nc3sc4c(NCc5ccccn5)ncnc4c3c2C1 | 225 to 226
30 | CCOC(=O)Nc1nc(-c2ccccc2)c(-c2nc3ccccc3c(=O)n2-c2cccc(Cl)c2)s1 | 235 to 236
31 | c1ccc2c3c([nH]c2c1)CCCSCC3 | 106 to 107
32 | CC(C)CNc1nccc(Oc2ccc(NC(=O)c3cc(F)cc(N4CCOCC4)c3)c3ccccc23)n1 | 96 to 97
33 | Cn1c(=O)c2c(nc(N3CCC(N)C3)n2Cc2ccccc2C#N)n(C)c1=O (centres undefined) | 186 to 189
34 | CC(=O)OC(C)OC(=O)[C@H](Cc1ccc(-c2c(C)n(C)c(=O)n(C)c2=O)cc1)NC(=O)c1c(Cl)cccc1Cl (some centres undefined) | 168 to 170
35 | O=c1cc(CBr)c2cc(O)ccc2o1 | 198 to 200
36 | CCCc1nc(C(=O)OC)c(C(=O)OC)n1Cc1ccc(-c2ccccc2-c2nnn[nH]2)cc1 | 124 to 126
37 | O=C(CCCCCN1CCC(c2cccc(C(F)(F)F)c2)CC1)N1Cc2ccccc2C1 | 71
38 | COC(=O)c1cc(-c2ccc3c(c2)c2cc(-c4ccc(Cl)cc4Cl)c(=O)n(C)c2n3C)on1 | 280 to 281
39 | COC(=O)c1ccc(Oc2cc3c(cc2C)C(C)(C)CCC3(C)C)cc1 | 133 to 135
40 | C[C@H]1Cc2c(F)c(F)cc3c(=O)c(C(=O)O)cn1c23 | 279 to 283
41 | O=C(c1cccnc1)C(O)c1ccccc1Cl (centres undefined) | 92

The next lines start with the values.

Row | melting point [°C] | SMILES
42 | 106 to 108 | CC(C)(C)OC(=O)NCCNC(=O)c1ccc(Cl)cn1
43 | 127 | CCCC1=NN(c2ccccc2C(=O)O)C(=O)C1=CNc1ccccc1CC
44 | 209 to 210 | CCOC(=O)/C=C/c1ccc2c(c1)nc(N)c1nc(CC)n(CC3CCOCC3)c12
45 | 80 to 83 | COc1ccccc1CC(c1sccc1C)N(C)C=O (centres undefined)
46 | 88 to 89 | COc1cccnc1Oc1cccc(C#N)c1
47 | 180 to 181 | CCOCCOc1cc(OC)c(C(CC(=O)Nc2cc(C(N)=O)ccc2C(C)(C)C)CC(C)C)cc1Cl (centres undefined)
48 | 149 to 151 | Cc1oc(-c2ccc3ccccc3c2)nc1COc1ccc(CCCC#N)cc1
49 | 208 to 212 | COc1ccccc1C1Cc2c(ccn2C)C2C(=O)NC(=O)C12 (centres undefined)
50 | 53 to 58 | CC(COc1ccc(CC2SC(=O)NC2=O)cc1)C1CC(COc2ccccc2)OC1=S (centres undefined)
51 | 179 to 181 | O=C1N(CC(O)CO)c2ccccc2C12COc1cc3c(cc12)OCCO3 (centres undefined)
52 | 224 to 226 | Cc1c2c(cc3ccc(O)cc13)-c1ccc(O)cc1CO2
53 | 150 to 151 | COC(=O)C(NC(=O)C(NC(C)=O)(OC)C(Br)Br)=C(C)C (centres undefined)
54 | 186 to 187 | Cc1ccc(-c2cccc(/C=C/C(=O)O)c2)cc1
55 | 253 to 255 | CC(C)[C@H](NC(=O)OCc1ccccc1)C(=O)NNS(=O)(=O)c1ccccc1
56 | 215 to 221 | COc1cc2c(Nc3ccc(Sc4nccn4C)c(Cl)c3)c(C#N)cnc2cc1/C=C/CCCN1CCN(C)CC1
57 | 155 to 157 | CCOC(=O)C(=CNc1coc2ccccc2c1=O)C(=O)OCC
58 | 160 to 161 | CN(c1cc(OCC(N)=O)cc2cc(C3=NCC(CN4CCS(=O)CC4)S3)[nH]c12)S(=O)(=O)c1ccccn1 (centres undefined)
59 | 115 to 119 | C[C@H](NS(=O)(=O)c1ccc2c(Cl)cnc(Cl)c2c1)C(=O)OC(C)(C)C
60 | 111 to 113 | Clc1ccc(C(Cn2ccnc2)SCCC=Cc2ccccc2)c(Cl)c1 (centres undefined)
61 | 106 to 108 | CC(CNc1ccc(Cl)cc1[N+](=O)[O-])OS(C)(=O)=O (centres undefined)
62 | 132 to 136 | Cn1nc(-c2c(F)cccc2F)nc1-c1ccc(OCc2ccc(OC(F)(F)F)cc2)c(Cl)c1
63 | 98 to 100 | O=C(NCCCCCCNC(=O)OC1CCCCC1)OC1CCCCC1
64 | 166 to 168 | COc1ccc(C2=NNC(=O)[C@H]3CC=CC[C@@H]23)cc1OC1CCCC1 (relative stereo)
65 | 174 to 178 | COCCn1nc2c3c(c(NCCNCCO)ccc31)C(=O)c1c(O)ccc(O)c1-2
66 | 158 to 160 | COc1cccc(/C=C/C(=O)/C=C/C(=O)O)c1
67 | 179 to 184 | O=C(N[C@@H](Cc1ccccc1)[C@@H](O)[C@H](O)[C@H](Cc1ccccc1)NC(=O)c1ccccn1)c1ccccn1
68 | 87 to 89 | COc1ccc(-c2cccc(COCCc3cccc(NC(N)=O)c3)c2)cc1
69 | 115 to 118 | CC(C)N(O)C(=O)c1c([Si](C)(C)C)sc2ccccc12

From a melting point compilation (Tetko et al.; mined from patent text by program, amines drawn as free bases though some values may be those of a salt)
